Measured values reported in patent US11242321B2, “Salt forms of organic compound” (KAINOS MEDICINE INC., priority 2018, dated 2022).

How the values were obtained:
[1] = Stability at 40° C./75% RH; type: physicochemical
[2] = Aqueous solubility assessment of salt screen solids (visual); conditions: Ca. 5 mg in up to 4000 μL water (1.25 mg/ml), shaken overnight at 50° C.
Description: Aqueous solubility assessment was performed using Ca. […] These samples were added to aliquots of deionized water up to a maximum of 4000 μL with the samples being shaken between additions to encourage dissolution prior to a visual inspection.

[3] = Dynamic vapor sorption (DVS); type: physicochemical
Description: SMS DVS Intrinsic dynamic vapour sorption instrument using DVS-Intrinsic control software v1.0.6.0. Analysis of the data was performed using the DVS analysis suite v7.0.13.1 macro program embedded in Microsoft Excel. Analysis was performed as a wt % change from 0-90% RH with isothermal plots also being examined.
Ca. 10-15 mg of sample was weighed into a stainless steel DVS basket before submitting for analysis. The samples were analysed over the range of 0-90% RH with a maximum time of 6 hours per humidity stage. Each sample was exposed to a double cycle. XRPD analysis of all samples was performed post-DVS.

pH1 stability = type: physicochemical; conditions: pH 1 buffer, 4 h at 37° C.
Description: Ca. 25 mg of each of the salts were weighed into a 2 mL HPLC vial prior to the addition of 1 mL of pH 1 buffer. The samples were then shaken for 4 h at 37° C. before being filtered into SPE cartridges and dried overnight.

FaSSIF/FeSSIF solubility = type: physicochemical; conditions: thermodynamic from solid, shaken 24 h at 37° C.
Description: Ca. 25 mg of each of the salts were weighed into a 2 mL HPLC vial prior to the addition of 1 mL of Fasting State Simulated Intenstinal Fluid (FaSSIS) solution. […] The experiment was also repeated using Fed State Simulated Intestinal Fluid (FeSSIF) solution.

pH of saturated solution = type: physicochemical; conditions: saturated solution in deionized water, room temperature
Description: A saturated solution of each of the salts was prepared in 5 mL of deionized water at room temperature prior to analysis.

[4] = Aqueous solubility, 24 h shake, gravimetric; type: physicochemical; conditions: thermodynamic from solid, deionized water
Description: Ca. 50 mg of each of the salts were weighed into a 2 mL HPLC vial prior to the addition of 1 mL of deionized water. […] The experiment was also repeated at 50° C.

## O=C(CSc1ccc(Br)cc1)Nc1cn(CCc2ccccc2)nc1C(=O)[O-].[Na+] [sodium salt, 4-(2-((4-bromophenyl)thio)acetamido)-1-phenethyl-1H-pyrazole-3-carboxylic Acid Sodium Salt]
[1]
  Observation post stability (40° C./75% RH): No visible change
  XRPD post stability (40° C./75% RH): Crystalline - no change in form
[1]; HPLC
  Chemical purity post stability (40° C./75% RH): >99.9% (by peak area)
[2]; salt prepared from DIPE
  Solubility assessment (dissolution in deionized water), salt from DIPE: Complete
[2]; salt prepared from ethanol
  Solubility assessment (dissolution in deionized water), salt From Ethanol: Complete
[3]; 0-90% RH, first cycle
  DVS mass increase between 0-90% RH, first cycle: Ca. 11.7% mass increase between 0-90% RH on
[3]; after double cycle 0-90% RH
  XRPD post DVS: Crystalline - no change in form
pH1 stability
  Observations post stability (pH 1 for 4 h): No visual change
  XRPD post stability (pH 1 for 4 h): Partially crystalline: change in crystalline
pH1 stability; HPLC
  Chemical purity post stability (pH 1 for 4 h): >99.9% (by peak area)
pH1 stability; cell continues: salt form is no longer present
  1H NMR post stability (pH 1 for 4 h): No chemical shifts, indicating that salt form
FaSSIF/FeSSIF solubility; FaSSIF, read-out: FaSSIF solubility @ 37° C.
  solubility at 24 h: 4000 µg/mL
FaSSIF/FeSSIF solubility; FeSSIF, read-out: FeSSIF solubility @ 37° C.
  solubility at 24 h: 3800 µg/mL
pH of saturated solution
  pH of rm temp sat'd sol'n: 10.31
[4]; shaken 24 h at 25° C., read-out: Aqueous solubility @ 25° C.
  solubility at 24 h: 2300 µg/mL
[4]; shaken 24 h at 50° C.
  solubility at 24 h: 2400 µg/mL
